Results from patent US20240336566A1, “CRYSTALLINE FORMS OF A COMPOUND FOR THE TARGETED DEGRADATION OF THE ANDROGEN RECEPTOR” (Arvinas Operations, Inc., priority 2023, published 2024).
Entries after “also recorded” stand apart in the source; their conditions may differ. Read-outs that look alike come from different tables or passages of the source.

Experiments:
[1] = Dynamic vapour sorption (DVS) with XRPD of retained solid; type: physicochemical
Procedure: 10-20 mg of sample was placed into a mesh vapour sorption balance pan and loaded into a DVS-1 dynamic vapour sorption balance by Surface Measurement Systems. The sample was subjected to a ramping profile from 40-90% relative humidity (RH) at 10% increments, maintaining the sample at each step until a stable weight had been achieved (dm/dt 0.004%, minimum step length 30 minutes, maximum step length 500 minutes) at 25° C. After completion of the sorption cycle, the sample was dried using the same procedure to 0% RH and then a second sorption cycle back to 40% RH. Two cycles were performed. The weight change during the sorption/desorption cycles were plotted, allowing for the hygroscopic nature of the sample to be determined. XRPD analysis was then carried out on any solid retained.

[2] = Solvent solubility screen of Compound A (aliquot addition, HPLC of saturated solutions); type: physicochemical; set-up: key to XRPD: A: Amorphous; P1: Pattern 1; P2: Pattern 2; *Poorly crystalline; + p1: some pattern 1 peaks; conditions: for XRPD: solid from solubility screen
Procedure: A known volume aliquot (typically 5 volumes) of solvent was added to approximately 5 mg of Compound A. See Table 14 for the selected solvents for the solvent solubility screen.
Between each addition, the mixture was checked for dissolution and where no dissolution was apparent, the mixture was heated to ca. 40° C. and checked again. This procedure was continued until dissolution was observed or until 100 volumes of solvent had been added.
Where dissolution was not observed, solids were isolated centrifugally and analyzed by XRPD. The saturated solutions were analyzed by HPLC to obtain the solubility.

COc1cc(O[C@H]2C(C)(C)[C@H](NC(=O)c3ccc(N4CCC(CN5CCN(c6ccc(C(=O)N[C@H]7CCC(=O)NC7=O)c(F)c6)CC5)CC4)cc3)C2(C)C)ccc1C#N [Compound A, 4-(4-((1-(4-(((1R,3R)-3-(4-cyano-3-methoxyphenoxy)-2,2,4,4-tetramethylcyclobutyl)carbamoyl)phenyl)piperidin-4-yl)methyl)piperazin-1-yl)-N—((S)-2,6-dioxopiperidin-3-yl)-2-fluorobenzamide]
form by XRPD post DVS [1]: Crystallization was not observed; also recorded: remained amorphous by XRPD | hygroscopic nature (DVS) ([1]; 25° C.): hygroscopic | average mass uptake of water (DVS) ([1]; at 90% RH, 25° C.): 4.08 wt. % | mass uptake of water (DVS), equivalents ([1]; at 90% RH, 25° C.): 1.91 eq. | solubility ([2]; 1,4-dioxane, organic solvent or mixture, thermodynamic from solid, 1,4-Dioxane, read-out: Approximate Solubility): 100 mg/mL | solubility ([2]; 1,4-dioxane, organic solvent or mixture, thermodynamic from solid, 1,4-Dioxane, read-out: Approximate solubility): ~100 mg/mL | solubility ([2]; 1,4-dioxane, organic solvent or mixture, thermodynamic from solid, 1,4-dioxane, read-out: solubility): > 100 mg/mL | solubility ([2]; 1-butanol, 40 °C, organic solvent or mixture, thermodynamic from solid, 1-Butanol, read-out: Approximate Solubility): 0.188 mg/mL | solubility ([2]; 1-propanol, 40 °C, organic solvent or mixture, thermodynamic from solid, 1-Propanol, read-out: Approximate Solubility): 0.232 mg/mL | solubility ([2]; 2-Butanone (MEK), 40 °C, organic solvent or mixture, thermodynamic from solid, 2-Butanone (MEK), read-out: Approximate Solubility): 2.13 mg/mL | solubility ([2]; 2-Ethoxyethanol, 40 °C, organic solvent or mixture, thermodynamic from solid, 2-Ethoxyethanol, read-out: Approximate Solubility): 1.55 mg/mL | solubility ([2]; 2-Methyl THF, 40 °C, organic solvent or mixture, thermodynamic from solid, 2-Methyl THF, read-out: Approximate Solubility): 2.89 mg/mL | solubility ([2]; 2-Propanol, 40 °C, organic solvent or mixture, thermodynamic from solid, 2-Propanol, read-out: Approximate Solubility): 0.205 mg/mL | solubility ([2]; 2-propanol:water (90:10% v/v), 40 °C, organic solvent or mixture, thermodynamic from solid, 2-Propanol:Water (90:10% v/v), read-out: Approximate Solubility): 0.186 mg/mL | solubility ([2]; 3-Methyl-1-butanol, 40 °C, organic solvent or mixture, thermodynamic from solid, 3-Methyl-1-butanol, read-out: Approximate Solubility): 1.22 mg/mL | solubility ([2]; Acetone, 40 °C, organic solvent or mixture, thermodynamic from solid, Acetone, read-out: Approximate Solubility): 2.73 mg/mL | solubility ([2]; Acetonitrile, 40 °C, organic solvent or mixture, thermodynamic from solid, Acetonitrile, read-out: Approximate Solubility): 0.995 mg/mL | solubility ([2]; Anisole, organic solvent or mixture, thermodynamic from solid, Anisole, read-out: Approximate Solubility): 25 mg/mL | solubility ([2]; Butyl acetate, 40 °C, organic solvent or mixture, thermodynamic from solid, Butyl acetate, read-out: Approximate Solubility): 0.209 mg/mL | solubility ([2]; DCM, organic solvent or mixture, thermodynamic from solid, DCM, read-out: Approximate solubility): ~50 mg/mL | solubility ([2]; DCM, organic solvent or mixture, thermodynamic from solid, DCM, read-out: solubility): 50 to 100 mg/mL | solubility ([2]; DCM:methanol (50:50% v/v), organic solvent or mixture, thermodynamic from solid, DCM:methanol (50:50% v/v), read-out: solubility): 50 to 100 mg/mL | solubility ([2]; DCM:methanol (75:25% v/v), organic solvent or mixture, thermodynamic from solid, DCM:methanol (75:25% v/v), read-out: solubility): > 100 mg/mL | solubility ([2]; DMA, organic solvent or mixture, thermodynamic from solid, DMA, read-out: solubility): > 100 mg/mL | solubility ([2]; DMF, organic solvent or mixture, thermodynamic from solid, DMF, read-out: solubility): > 100 mg/mL | solubility ([2]; DMSO, organic solvent or mixture, thermodynamic from solid, DMSO, read-out: solubility): > 100 mg/mL | solubility ([2]; Dichloromethane, organic solvent or mixture, thermodynamic from solid, Dichloromethane, read-out: Approximate Solubility): 50 mg/mL | solubility ([2]; N,N′-dimethylacetamide, organic solvent or mixture, thermodynamic from solid, N,N′-Dimethylacetamide, read-out: Approximate Solubility): 100 mg/mL | solubility ([2]; N,N′-dimethylformamide, organic solvent or mixture, thermodynamic from solid, N,N′-Dimethylformamide, read-out: Approximate Solubility): 100 mg/mL | solubility ([2]; N-methylpyrrolidone, organic solvent or mixture, thermodynamic from solid, N-Methylpyrrolidone, read-out: Approximate Solubility): 50 mg/mL | solubility ([2]; NMP, organic solvent or mixture, thermodynamic from solid, NMP, read-out: solubility): 50 to 100 mg/mL | solubility ([2]; THF, organic solvent or mixture, thermodynamic from solid, THF, read-out: Approximate solubility): ~50 mg/mL | solubility ([2]; THF, organic solvent or mixture, thermodynamic from solid, THF, read-out: solubility): 50 to 100 mg/mL | solubility ([2]; THF:water (98:2% v/v), organic solvent or mixture, thermodynamic from solid, THF:water (98:2% v/v), read-out: solubility): 50 to 100 mg/mL | solubility ([2]; acetone:water (90:10% v/v), 40 °C, organic solvent or mixture, thermodynamic from solid, Acetone:Water (90:10% v/v), read-out: Approximate Solubility): 5.68 mg/mL | solubility ([2]; acetonitrile:water (75:25% v/v), 40 °C, organic solvent or mixture, thermodynamic from solid, Acetonitrile:Water (75:25% v/v), read-out: Approximate Solubility): 1.05 mg/mL | solubility ([2]; anisole, organic solvent or mixture, thermodynamic from solid, anisole, read-out: solubility): 25 to 50 mg/mL | solubility ([2]; dichloromethane:methanol (50:50% v/v), organic solvent or mixture, thermodynamic from solid, Dichloromethane:Methanol (50:50% v/v), read-out: Approximate Solubility): 50 mg/mL | solubility ([2]; dichloromethane:methanol (50:50% v/v), organic solvent or mixture, thermodynamic from solid, Dichloromethane:Methanol (50:50% v/v), read-out: Approximate solubility): ~50 mg/mL | solubility ([2]; dichloromethane:methanol (75:25% v/v), organic solvent or mixture, thermodynamic from solid, Dichloromethane:Methanol (75:25% v/v), read-out: Approximate Solubility): 100 mg/mL | solubility ([2]; diethyl ether, 40 °C, organic solvent or mixture, thermodynamic from solid, Diethyl ether, read-out: Approximate Solubility): 0.002 mg/mL | solubility ([2]; dimethylsulfoxide, organic solvent or mixture, thermodynamic from solid, Dimethylsulfoxide, read-out: Approximate Solubility): 100 mg/mL | solubility ([2]; ethanol, 40 °C, organic solvent or mixture, thermodynamic from solid, Ethanol, read-out: Approximate Solubility): 0.276 mg/mL | solubility ([2]; ethanol:water (50:50% v/v), 40 °C, aqueous with cosolvent or surfactant or cyclodextrin, thermodynamic from solid, Ethanol:Water (50:50% v/v), read-out: Approximate Solubility): 0.0192 mg/mL | solubility ([2]; ethyl acetate, 40 °C, organic solvent or mixture, thermodynamic from solid, Ethyl acetate, read-out: Approximate Solubility): 0.444 mg/mL | solubility ([2]; ethyl formate, 40 °C, organic solvent or mixture, thermodynamic from solid, Ethyl formate, read-out: Approximate Solubility): 1.01 mg/mL | solubility ([2]; heptane, 40 °C, organic solvent or mixture, thermodynamic from solid, Heptane, read-out: Approximate Solubility): 0.0017 mg/mL | solubility ([2]; isopropyl acetate, organic solvent or mixture, thermodynamic from solid, Isopropyl acetate, read-out: Approximate Solubility): 0.174 mg/mL | solubility ([2]; methanol, organic solvent or mixture, thermodynamic from solid, Methanol, read-out: Approximate Solubility): 0.437 mg/mL | solubility ([2]; methylisobutyl ketone, organic solvent or mixture, thermodynamic from solid, Methylisobutyl ketone, read-out: Approximate Solubility): 0.53 mg/mL | solubility ([2]; organic solvent or mixture, thermodynamic from solid, remaining 25 solvent systems tested, read-out: solubility): < 5 mg/mL | XRPD ([2]; 1,4-Dioxane): A | XRPD ([2]; 1-Butanol): P1 | XRPD ([2]; 1-Propanol): P1 | XRPD ([2]; 2-Butanone (MEK)): P1 | XRPD ([2]; 2-Ethoxyethanol): P1 | XRPD ([2]; 3-Methyl-1-butanol): A | XRPD ([2]; Acetone): P1 | XRPD ([2]; Acetonitrile:Water (75:25% v/v)): A | XRPD ([2]; Butyl acetate): P1 | XRPD ([2]; Dichloromethane): A | XRPD ([2]; Dichloromethane:Methanol (50:50% v/v)): A | XRPD ([2]; Dichloromethane:Methanol (75:25% v/v)): A | XRPD ([2]; Ethanol): P1 | XRPD ([2]; Ethyl acetate): P1 | XRPD ([2]; Heptane): A | XRPD ([2]; Toluene): A | XRPD ([2]; Water): A | XRPD ([2]; tert-Butylmethyl ether): A | solubility ([2]; tert-Butylmethyl ether, organic solvent or mixture, thermodynamic from solid, tert-Butylmethyl ether, read-out: Approximate Solubility): 0.108 mg/mL | solubility ([2]; tetrahydrofuran, organic solvent or mixture, thermodynamic from solid, Tetrahydrofuran, read-out: Approximate Solubility): 50 mg/mL | solubility ([2]; tetrahydrofuran:water (98:2% v/v), organic solvent or mixture, thermodynamic from solid, Tetrahydrofuran:Water (98:2% v/v), read-out: Approximate Solubility): 50 mg/mL | solubility ([2]; tetrahydrofuran:water (98:2% v/v), organic solvent or mixture, thermodynamic from solid, Tetrahydrofuran:Water (98:2% v/v), read-out: Approximate solubility): ~50 mg/mL | solubility ([2]; toluene, organic solvent or mixture, thermodynamic from solid, Toluene, read-out: Approximate Solubility): 0.0298 mg/mL | solubility ([2]; water, thermodynamic from solid, Water, read-out: Approximate Solubility): 0.0005 mg/mL
